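Briefly, cells in 96-well plates were exposed to five compound concentrations for 48 h, and endpoints were estimated by linear interpolation. GI50 = concentration required for 50% inhibition of growth.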 Activity calls are given as the source filed them. Cut-off read from the data, not from the text of the source: active = GI50 up to about 1.1 µM and inactive = higher.
Tests used:
Test in all cases: NCI-60 cell line screen, 48 h
HCT-15 = system: HCT-15
A498 = system: A498
ACHN = system: ACHN
NCI-H460 = system: NCI-H460
IGROV-1 = system: IGROV-1
M14 = system: M14
U-251 = system: U-251
SK-MEL-28 = system: SK-MEL-28
HOP-62 = system: HOP-62
DLD-1 = system: DLD-1
LXFL 529 = system: LXFL 529
EKVX = system: EKVX
LOX IMVI = system: LOX IMVI
CAKI-1 = system: CAKI-1
SK-MEL-2 = system: SK-MEL-2
COLO 205 = system: COLO 205
NCI-H23 = system: NCI-H23
786-0 = system: 786-0
RXF 393 = system: RXF 393
HOP-92 = system: HOP-92
HCT-116 = system: HCT-116
KM12 = system: KM12
OVCAR-4 = system: OVCAR-4
UO-31 = system: UO-31
SK-OV-3 = system: SK-OV-3
SR = system: SR
M19-MEL = system: M19-MEL
SK-MEL-5 = system: SK-MEL-5
DMS-273 = system: DMS-273
SNB-78 = system: SNB-78
SNB-19 = system: SNB-19
NCI-H226 = system: NCI-H226
A549 = system: A549
SN12C = system: SN12C
XF498 = system: XF498
CCRF-CEM = system: CCRF-CEM
SF-295 = system: SF-295
HL-60 = system: HL-60
OVCAR-5 = system: OVCAR-5
SNB-75 = system: SNB-75
Malme-3M = system: Malme-3M
KM-20L2 = system: KM-20L2
OVCAR-3 = system: OVCAR-3
HT-29 = system: HT-29
DMS-114 = system: DMS-114
K562 = system: K562
UACC-257 = system: UACC-257
HCC 2998 = system: HCC 2998
SF-268 = system: SF-268
HOP-18 = system: HOP-18
NCI-H522 = system: NCI-H522
TK-10 = system: TK-10
SW-620 = system: SW-620
RPMI-8226 = system: RPMI-8226
UACC-62 = system: UACC-62
RXF 631 = system: RXF 631
SF-539 = system: SF-539
MOLT-4 = system: MOLT-4
OVCAR-8 = system: OVCAR-8

N=C(NNS(=O)(=O)c1ccccc1)Oc1ccc(Br)cc1Br
GI50 (HCT-15): > 100 µM
GI50 (A498): > 100 µM (inactive)
GI50 (ACHN): > 100 µM (inactive)
GI50 (NCI-H460): > 100 µM (inactive)
GI50 (IGROV-1): > 100 µM (inactive)
GI50 (M14): > 100 µM (inactive)
GI50 (U-251): > 100 µM (inactive)
GI50 (SK-MEL-28): > 100 µM (inactive)
GI50 (HOP-62): > 100 µM (inactive)
GI50 (DLD-1): > 100 µM (inactive)
GI50 (LXFL 529): > 100 µM (inactive)
GI50 (EKVX): > 100 µM (inactive)
GI50 (LOX IMVI): > 100 µM (inactive)
GI50 (CAKI-1): > 100 µM (inactive)
GI50 (SK-MEL-2): > 100 µM (inactive)
GI50 (COLO 205): > 100 µM (inactive)
GI50 (NCI-H23): 84.7 µM (inactive)
GI50 (786-0): 41.3 µM (inactive)
GI50 (RXF 393): > 100 µM (inactive)
GI50 (HOP-92): 44.8 µM (inactive)
GI50 (HCT-116): > 100 µM (inactive)
GI50 (KM12): > 100 µM (inactive)
GI50 (OVCAR-4): > 100 µM (inactive)
GI50 (UO-31): > 100 µM (inactive)
GI50 (SK-OV-3): > 100 µM (inactive)
GI50 (SR): > 100 µM (inactive)
GI50 (M19-MEL): > 100 µM (inactive)
GI50 (SK-MEL-5): > 100 µM (inactive)
GI50 (DMS-273): > 100 µM (inactive)
GI50 (SNB-78): > 100 µM (inactive)
GI50 (SNB-19): > 100 µM (inactive)
GI50 (NCI-H226): 73.5 µM (inactive)
GI50 (A549): > 100 µM (inactive)
GI50 (SN12C): > 100 µM (inactive)
GI50 (XF498): > 100 µM (inactive)
GI50 (CCRF-CEM): 71.4 µM (inactive)
GI50 (SF-295): > 100 µM (inactive)
GI50 (HL-60): 92.7 µM (inactive)
GI50 (OVCAR-5): > 100 µM (inactive)
GI50 (SNB-75): 94.2 µM (inactive)
GI50 (Malme-3M): > 100 µM (inactive)
GI50 (KM-20L2): > 100 µM (inactive)
GI50 (OVCAR-3): > 100 µM (inactive)
GI50 (HT-29): 55.7 µM (inactive)
GI50 (DMS-114): > 100 µM (inactive)
GI50 (K562): 90.6 µM (inactive)
GI50 (UACC-257): > 100 µM (inactive)
GI50 (HCC 2998): > 100 µM (inactive)
GI50 (SF-268): > 100 µM (inactive)
GI50 (HOP-18): > 100 µM (inactive)
GI50 (NCI-H522): 67 µM (inactive)
GI50 (TK-10): > 100 µM (inactive)
GI50 (SW-620): 11.9 µM (inactive)
GI50 (RPMI-8226): 57.8 µM (inactive)
GI50 (UACC-62): > 100 µM (inactive)
GI50 (RXF 631): > 100 µM (inactive)
GI50 (SF-539): > 100 µM (inactive)
GI50 (MOLT-4): > 100 µM (inactive)
GI50 (OVCAR-8): > 100 µM (inactive)

S=C1NC(c2ccccc2)=NC(Cc2ccccc2)(c2ccccc2)N1c1ccccc1 (configuration not stated)
GI50 (HCT-15): > 100 µM
GI50 (A498): > 100 µM (inactive)
GI50 (ACHN): 97.1 µM (inactive)
GI50 (NCI-H460): > 100 µM (inactive)
GI50 (IGROV-1): > 100 µM (inactive)
GI50 (M14): > 100 µM (inactive)
GI50 (SK-MEL-28): > 100 µM (inactive)
GI50 (HOP-62): 40.3 µM (inactive)
GI50 (DLD-1): > 100 µM (inactive)
GI50 (LXFL 529): > 100 µM (inactive)
GI50 (EKVX): > 100 µM (inactive)
GI50 (LOX IMVI): 96.6 µM (inactive)
GI50 (CAKI-1): > 100 µM (inactive)
GI50 (COLO 205): > 100 µM (inactive)
GI50 (NCI-H23): > 100 µM (inactive)
GI50 (786-0): > 100 µM (inactive)
GI50 (RXF 393): 68.2 µM (inactive)
GI50 (HOP-92): > 100 µM (inactive)
GI50 (HCT-116): > 100 µM (inactive)
GI50 (KM12): > 100 µM (inactive)
GI50 (OVCAR-4): 42.1 µM (inactive)
GI50 (UO-31): > 100 µM (inactive)
GI50 (SR): > 100 µM (inactive)
GI50 (M19-MEL): > 100 µM (inactive)
GI50 (SK-MEL-5): > 100 µM (inactive)
GI50 (SNB-78): > 100 µM (inactive)
GI50 (SNB-19): 45.4 µM (inactive)
GI50 (NCI-H226): > 100 µM (inactive)
GI50 (A549): 58.9 µM (inactive)
GI50 (SN12C): > 100 µM (inactive)
GI50 (CCRF-CEM): > 100 µM (inactive)
GI50 (SF-295): 37.9 µM (inactive)
GI50 (HL-60): > 100 µM (inactive)
GI50 (OVCAR-5): > 100 µM (inactive)
GI50 (SNB-75): 19.7 µM (inactive)
GI50 (Malme-3M): > 100 µM (inactive)
GI50 (KM-20L2): > 100 µM (inactive)
GI50 (OVCAR-3): > 100 µM (inactive)
GI50 (HT-29): > 100 µM (inactive)
GI50 (DMS-114): > 100 µM (inactive)
GI50 (K562): > 100 µM (inactive)
GI50 (UACC-257): > 100 µM (inactive)
GI50 (HCC 2998): > 100 µM (inactive)
GI50 (SF-268): > 100 µM (inactive)
GI50 (HOP-18): 97.1 µM (inactive)
GI50 (TK-10): > 100 µM (inactive)
GI50 (SW-620): > 100 µM (inactive)
GI50 (RPMI-8226): > 100 µM (inactive)
GI50 (UACC-62): > 100 µM (inactive)
GI50 (RXF 631): > 100 µM (inactive)
GI50 (SF-539): > 100 µM (inactive)
GI50 (MOLT-4): > 100 µM (inactive)
GI50 (OVCAR-8): 41.4 µM (inactive)
